Holding throughout (assay type): cell-based
Assay [1] has as its target T1, P2X purinoceptor 1 (Homo sapiens, UniProt P51575).
T1 sequence (P51575 whole entry): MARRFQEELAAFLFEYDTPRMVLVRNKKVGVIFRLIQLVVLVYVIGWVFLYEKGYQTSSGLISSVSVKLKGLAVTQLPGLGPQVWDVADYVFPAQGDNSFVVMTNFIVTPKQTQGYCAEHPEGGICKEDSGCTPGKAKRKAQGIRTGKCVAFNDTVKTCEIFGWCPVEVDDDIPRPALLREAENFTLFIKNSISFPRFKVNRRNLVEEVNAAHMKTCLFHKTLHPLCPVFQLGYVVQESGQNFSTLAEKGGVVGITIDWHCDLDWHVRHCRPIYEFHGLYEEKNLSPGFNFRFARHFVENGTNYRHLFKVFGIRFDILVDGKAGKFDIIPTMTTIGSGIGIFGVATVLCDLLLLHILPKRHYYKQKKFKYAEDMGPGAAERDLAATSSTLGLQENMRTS
Nature of the assay: […] activity at human P2X1R expressing CHO cells assessed as reduction in intracellular Ca2+ influx pretreated with Fluo-4 for 1 hr followed by compound addition and further incubated for 30 mins in presence of ATP by multimode plate reader analysis.

Assay [2] concerns the target T2, P2X purinoceptor 2 (Homo sapiens, UniProt Q9UBL9).
T2 sequence (Q9UBL9 whole entry): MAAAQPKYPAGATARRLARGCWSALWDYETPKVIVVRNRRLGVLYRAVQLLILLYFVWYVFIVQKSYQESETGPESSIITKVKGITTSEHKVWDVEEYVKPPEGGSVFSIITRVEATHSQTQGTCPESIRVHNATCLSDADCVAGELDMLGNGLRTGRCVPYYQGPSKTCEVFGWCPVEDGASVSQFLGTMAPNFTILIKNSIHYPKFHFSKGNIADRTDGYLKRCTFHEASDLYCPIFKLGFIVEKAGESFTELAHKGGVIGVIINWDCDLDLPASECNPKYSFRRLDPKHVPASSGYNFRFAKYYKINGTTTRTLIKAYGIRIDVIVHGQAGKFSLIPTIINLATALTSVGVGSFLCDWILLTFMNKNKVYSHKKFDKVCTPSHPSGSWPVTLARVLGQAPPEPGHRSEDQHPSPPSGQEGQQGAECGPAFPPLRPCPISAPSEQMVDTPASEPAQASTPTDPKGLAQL
Nature of the assay: […] activity at human P2X2R expressing CHO cells assessed as reduction in intracellular Ca2+ influx pretreated with Fluo-4 for 1 hr followed by compound addition and further incubated for 30 mins in presence of ATP by multimode plate reader analysis.

The target in assay [3] is T3, P2X purinoceptor 3 (Homo sapiens, UniProt P56373).
T3 sequence (P56373 whole entry): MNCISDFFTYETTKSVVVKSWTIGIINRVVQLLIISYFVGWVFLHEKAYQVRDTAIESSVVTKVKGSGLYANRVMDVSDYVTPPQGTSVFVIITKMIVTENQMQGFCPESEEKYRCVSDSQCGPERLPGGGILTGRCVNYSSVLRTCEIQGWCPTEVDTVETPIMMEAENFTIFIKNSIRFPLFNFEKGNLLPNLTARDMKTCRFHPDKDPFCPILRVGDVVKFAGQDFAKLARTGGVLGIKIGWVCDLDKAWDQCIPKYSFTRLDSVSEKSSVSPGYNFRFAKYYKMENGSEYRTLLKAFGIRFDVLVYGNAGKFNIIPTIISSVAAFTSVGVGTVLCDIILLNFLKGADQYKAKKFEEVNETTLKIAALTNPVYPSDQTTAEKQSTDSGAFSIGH
Nature of the assay: […] activity at human P2X3R expressing CHO cells assessed as reduction in intracellular Ca2+ influx pretreated with Fluo-4 for 1 hr followed by compound addition and further incubated for 30 mins in presence of ATP by multimode plate reader analysis.

Assay [4] deals with T4, P2X2/P2X3 heterotrimeric receptor (Homo sapiens, UniProt P56373+Q9UBL9).
T4 sequence (Q9UBL9 whole entry): T2 sequence (Q9UBL9 whole entry)
T4 sequence (P56373 whole entry): T3 sequence (P56373 whole entry)
Briefly: […] activity at human P2X2R/P2X3R expressing CHO cells assessed as reduction in intracellular Ca2+ influx pretreated with Fluo-4 for 1 hr followed by compound addition and further incubated for 30 mins in presence of ATP by multimode plate reader analysis.

For assay [5], the target named is T5, P2X purinoceptor 4 (Homo sapiens, UniProt Q99571).
T5 sequence (Q99571 whole entry): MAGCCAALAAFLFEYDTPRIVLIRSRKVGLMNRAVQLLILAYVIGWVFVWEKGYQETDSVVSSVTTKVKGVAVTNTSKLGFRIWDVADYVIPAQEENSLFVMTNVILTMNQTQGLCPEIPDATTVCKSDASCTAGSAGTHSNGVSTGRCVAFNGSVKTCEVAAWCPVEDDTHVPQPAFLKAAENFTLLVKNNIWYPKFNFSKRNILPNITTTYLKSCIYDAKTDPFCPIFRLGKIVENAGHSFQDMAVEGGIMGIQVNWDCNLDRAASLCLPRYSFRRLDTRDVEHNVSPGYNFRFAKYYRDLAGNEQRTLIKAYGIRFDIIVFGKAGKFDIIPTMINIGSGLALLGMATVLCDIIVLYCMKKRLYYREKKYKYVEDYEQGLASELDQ
Nature of the assay: […] activity at human P2X4R expressing HEK293 cells assessed as reduction in intracellular Ca2+ influx pretreated with Fluo-4 for 1 hr followed by compound addition and further incubated for 30 mins in presence of ATP by multimode plate reader analysis.

Assay [6] deals with T6, P2X purinoceptor 7 (Homo sapiens, UniProt Q99572).
T6 sequence (Q99572 whole entry): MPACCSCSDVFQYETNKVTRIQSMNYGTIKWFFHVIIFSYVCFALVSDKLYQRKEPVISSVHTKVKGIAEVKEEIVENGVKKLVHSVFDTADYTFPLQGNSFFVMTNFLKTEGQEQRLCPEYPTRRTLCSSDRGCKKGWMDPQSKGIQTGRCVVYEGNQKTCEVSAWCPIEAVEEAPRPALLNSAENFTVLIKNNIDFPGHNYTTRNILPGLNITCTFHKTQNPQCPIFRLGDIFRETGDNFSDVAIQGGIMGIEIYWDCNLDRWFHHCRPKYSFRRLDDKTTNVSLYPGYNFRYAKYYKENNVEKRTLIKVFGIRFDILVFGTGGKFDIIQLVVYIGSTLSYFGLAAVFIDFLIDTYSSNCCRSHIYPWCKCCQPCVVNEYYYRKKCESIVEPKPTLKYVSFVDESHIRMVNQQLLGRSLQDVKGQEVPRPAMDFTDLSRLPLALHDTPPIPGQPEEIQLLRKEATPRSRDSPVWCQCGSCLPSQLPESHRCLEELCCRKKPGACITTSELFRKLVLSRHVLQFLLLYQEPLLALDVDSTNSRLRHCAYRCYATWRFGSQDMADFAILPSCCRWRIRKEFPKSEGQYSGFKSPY
Briefly: […] activity at human P2X7R expressing HEK293 cells assessed as reduction in intracellular Ca2+ influx pretreated with Fluo-4 for 1 hr followed by compound addition and further incubated for 30 mins in presence of ATP by multimode plate reader analysis.

The target in assay [7] is T6, P2X purinoceptor 7. Nature of the assay: […] activity at human P2X7R expressed in HEK293 cells assessed as reduction in YO-PRO-1 iodide dye uptake preincubated for 30 mins followed by YO-PRO-1 iodide addition and measured after 2 hrs by fluorescence based multimode plate reader analysis.
For assay [8], the target named is T1, P2X purinoceptor 1. Nature of the assay: Antagonist activity at human P2X1R expressing CHO cells assessed as reduction in intracellular Ca2+ influx pretreated with Fluo-4 for 1 hr followed by compound addition and further incubated for 30 mins in presence of ATP by multimode plate reader analysis.
In assay [9] the target is T2, P2X purinoceptor 2. Briefly: Antagonist activity at human P2X2R expressing CHO cells assessed as reduction in intracellular Ca2+ influx pretreated with Fluo-4 for 1 hr followed by compound addition and further incubated for 30 mins in presence of ATP by multimode plate reader analysis.
In assay [10] the target is T3, P2X purinoceptor 3. Briefly: Antagonist activity at human P2X3R expressing CHO cells assessed as reduction in intracellular Ca2+ influx pretreated with Fluo-4 for 1 hr followed by compound addition and further incubated for 30 mins in presence of ATP by multimode plate reader analysis.
Assay [11] concerns the target T4, P2X2/P2X3 heterotrimeric receptor. Nature of the assay: Antagonist activity at human P2X2R/P2X3R expressing CHO cells assessed as reduction in intracellular Ca2+ influx pretreated with Fluo-4 for 1 hr followed by compound addition and further incubated for 30 mins in presence of ATP by multimode plate reader analysis.
Assay [12] has as its target T5, P2X purinoceptor 4. Briefly: Antagonist activity at human P2X4R expressing HEK293 cells assessed as reduction in intracellular Ca2+ influx pretreated with Fluo-4 for 1 hr followed by compound addition and further incubated for 30 mins in presence of ATP by multimode plate reader analysis.
Assay [13] has as its target T6, P2X purinoceptor 7. Briefly: Antagonist activity at human P2X7R expressing HEK293 cells assessed as reduction in intracellular Ca2+ influx pretreated with Fluo-4 for 1 hr followed by compound addition and further incubated for 30 mins in presence of ATP by multimode plate reader analysis.

From ChEMBL document CHEMBL5120960, “Unveiling the Structure-Activity Relationships at the Orthosteric Binding Site of P2X Ion Channels: The Route to Selectivity” (J Med Chem, 2022) come the findings set out here.

Broadly, the EC50 is the midpoint of the concentration-response curve. Broadly, the IC50 is the point on the concentration scale where inhibition reaches its midpoint.

With `Nc1ncnc2c1ncn2[C@@H]1O[C@H](COP(=O)(O)OP(=O)(O)OP(=O)(O)O)[C@@H](OC(=O)c2ccccc2)[C@H]1OC(=O)c1ccccc1`, the EC50 was above 100 µM in [1]; above 100 µM in assay [2]; above 100 µM in [3]; 1.2 µM in assay [4]; 1.48 µM in [5]; above 100 µM in assay [6]. In [7], the EC50 was above 100 µM. Also, the IC50 is above 100 µM in assay [8]; 26.3 µM in [9]; above 100 µM in [10]; above 100 µM in assay [11]; above 100 µM in assay [12]; above 100 µM in assay [13].

Consider `Nc1ncnc2c1ncn2[C@@H]1O[C@H](COP(=O)(O)OP(=O)(O)OP(=O)(O)O)[C@@H](OC(=O)c2cccc3ccccc23)[C@H]1OC(=O)c1cccc2ccccc12`, for which the EC50 in assay [1] was above 100 µM; in assay [2], above 100 µM; in assay [3], above 100 µM; in assay [4], above 100 µM; in assay [5], above 100 µM; in [6], 16.6 µM. In addition, the EC50 in [7] was 22.4 µM. Besides, the 50% inhibitory concentration (IC50) in assay [8] is 15.8 µM; in [9] it was 10 µM; in assay [10], 18.6 µM; in assay [11] it was 11.5 µM; in [12], 6.31 µM; in assay [13], above 100 µM.

As for `COc1ccc(C(=O)O[C@@H]2[C@H](OC(=O)c3ccc(OC)cc3)[C@@H](COP(=O)(O)OP(=O)(O)OP(=O)(O)O)O[C@H]2n2cnc3c(N)ncnc32)cc1`, the IC50 in [1], in [2], in [3], in assay [4], in [5] and in assay [6] was above 100 µM each time. For the same molecule, the IC50 in assay [7], in [8], in [9], in [10], in [11] and in assay [12] was above 100 µM each time. The IC50 in assay [13] is above 100 µM.
